Source: patent publication US9878984B2, “Anti-cancer compounds” (NORTHWESTERN UNIVERSITY, priority 2008, dated 2018)

Legend:
pBR322 plasmid DNA = assay: DNA intercalation assay (topoisomerase I based plasmid DNA unwinding); type: biochemical; settings: 10, 31.6, and 100 μM, human topoisomerase I
Experimental: DNA Intercalation Assay: A DNA unwinding assay was performed as previously described with minor modifications. Four Units of recombinant wild type human topoisomerase I (Topogen—Port Orange, Fla.) were incubated with reaction buffer (included with enzyme), ˜0.5 μg of pBR322 plasmid DNA, which is a mixture of form I and form II plasmid DNA, and water added to a final volume of 19 μL. The reactions were incubated at 37° C. for 30 min and then 1 μL of each compound was added to give a final concentration of 10, 31.6, and 100 μM (final solvent concentration of 1% DMSO) and the reaction mixture was incubated at 37° C. for another 30 min. The reaction was stopped by the addition of 5 μL gel loading dye. The samples were immediately loaded onto a 1% agarose gel and electrophoresis was performed at 50 V for 3 h at room temperature. Pictures of the gels were obtained using a Kodak Image Station 440 CF (Kodak—Rochester, N.Y.) equipped with a UV source.
This activity depends on the ability of these compounds to intercalate DNA, which is the proposed mechanism of cytotoxic action of amonafide and its analogs. Therefore, the intercalation of plasmid DNA by A1-A9 was compared with the intercalation by amonafide to determine if they behave similarly. A topoisomerase I (topo I) based plasmid DNA unwinding assay was used to determine the intercalation of each compound [1]. […]

[1] = target: T1, wild type recombinant human NAT2 (NAT2*4) (Homo sapiens, UniProt P11245); assay: NAT2 acetylation assay (mass spectrometry); type: in vitro ADME; settings: 200 μM compound, 100 μg NAT2*4, 400 μM AcetylCoA, 10 min
T1 construct: made in house; host or cells: E. coli
T1 sequence (P11245 1-290): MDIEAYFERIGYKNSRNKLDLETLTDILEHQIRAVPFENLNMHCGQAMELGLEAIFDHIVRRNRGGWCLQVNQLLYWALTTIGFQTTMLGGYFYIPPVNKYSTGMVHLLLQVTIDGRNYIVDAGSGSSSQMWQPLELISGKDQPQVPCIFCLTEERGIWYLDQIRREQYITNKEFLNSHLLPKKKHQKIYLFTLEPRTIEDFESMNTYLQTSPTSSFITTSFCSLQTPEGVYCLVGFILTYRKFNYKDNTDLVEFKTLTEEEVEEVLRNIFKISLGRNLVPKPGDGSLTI
Experimental: NAT2 Assay: This assay was performed using a wild type recombinant human NAT2 (NAT2*4) that was purified from E. coli as previously described. The volume of each reaction was 500 μL with 200 μM amonafide, A1, or A2, 100 μg NAT2*4, and 400 μM AcetylCoA (Sigma-Poole, UK). Reactions were run for 0 or 10 min and stopped by addition of 500 μL of 20% (w/v) trichloroacetic acid (TCA-Sigma-Poole, UK) to give a final TCA concentration of […], which precipitates the enzyme. Two control assays, lacking either enzyme or compound, were performed for each compound. The reaction mixtures were prepared for analysis by isolation of the compounds from the reaction matrix by solid-phase extraction. In brief, 100 μL of the reaction mixture was added to 1 mL of 2% acetic acid. The sorbent of an Oasis HLB 30 mg Extraction Cartridge (Waters Chromatography—Milford, Mass.) was conditioned with 1 mL of methanol and 1 mL of water, the prepared sample was applied to the conditioned sorbent, and the sorbent was washed with 1 mL of 5% methanol. Samples were eluted with 200 μL methanol followed by 800 μL of 0.1% formic acid in methanol. The eluant was analyzed by an API 3000 LC-MS/MS system (Applied Biosystems—Foster City, Calif.). Samples were infused at 5 μL/min directly into the TurboIonSpray Source (Applied Biosystems—Foster City, Calif.), which was operated in the positive ionization mode. […]

CN(C)CCN1C(=O)c2cccc3c(N)ccc(c23)C1=O [A1, 6-amino-2-[2-(dimethylamino)ethyl]-1H-benz[de]isoquinoline-1,3(2H)-dione]
DNA intercalation (pBR322 plasmid DNA): intercalated DNA to a lesser extent than amonafide and the other derivatives

CN(C)CCN1C(=O)c2cccc3cc(N)cc(c23)C1=O [amonafide, reference compound]
N-acetylation by NAT2 (ratio of acetylated to parent compound) [1]: extensively acetylated | N-acetylation by NAT2 (ratio of acetylated to parent compound) ([1]; listed as Amonafide): underwent extensive acetylation
